Assay results as given in article PMC11272598, “RG7774 (Vicasinabin), an orally bioavailable cannabinoid receptor 2 (CB2R) agonist, decreases retinal vascular permeability, leukocyte adhesion, and ocular inflammation in animal models” (Frontiers in Pharmacology, 2024).

How the values were obtained:
[1] = molecular target: T1, human CB2R (Homo sapiens, UniProt P34972); experiment: Competition binding, [^3H]-CP55940, CHO cell membranes; conditions: competition binding assays
T1 construct: bgal (beta-galactosidase fragment of the PathHunter system); host or cells: CHO-K1
Procedure: Competition and saturation binding assays were performed using the radiolabeled CB1R/CB2R agonist [^3H]-CP55940 (PerkinElmer, Waltham, MA, United States) in recombinant cell systems, and the newly developed CB2R-selective agonist [^3H]-RO6753361 ([Chicca et al., 2024]) in cells expressing endogenous CB1R/CB2R. Competition assays were conducted by incubating 5, 40, or 40 µg of membrane protein from CHO cells, Jurkat cells or spleen cells, respectively, with 1.5 nM [^3H]-CP55940 or 1.5 nM [^3H]-RO6753361 in the presence or absence of increasing concentrations of ligand (RG7774 or control) for 2 h at 30°C in a final volume of 0.2 mL of assay buffer (50 mmol/L Tris-HCl, 5 mmol/L MgCl2, 2.5 mmol/L EDTA, and 0.5% fatty acid-free BSA [pH 7.4] and 1% DMSO), with gentle shaking. Saturation binding assays were conducted by incubating 1–3 μg, 40 μg, or 30–40 μg of membrane protein from CHO cells, Jurkat cells, or spleen tissue, respectively, with 12 concentrations in the range of 80–0.039 nM [^3H]-CP55940 or [^3H]-RO6753361 for 2 h at 30°C in a final volume of 0.2 mL/well of assay buffer without DMSO. […] IC50 values and Hill slopes were determined with a 4-parameter logistic model using ActivityBase (ID Business Solution, Guilford, United Kingdom) and pKi values were determined using the Cheng-Prusoff equation ([Cheng and Prusoff, 1973]).

[2] = Plasma PK profile in mice; format: in vivo, C57BL/6J mice
Procedure: The plasma PK profile of RG7774 was assessed in adult male C57BL/6J mice and female Wistar rats (Charles River, Cologne, Germany) housed in a controlled environment (temperature, humidity, and 12 h light/dark cycle) with unrestricted access to food and water. The ocular PK profile of RG7774 was assessed in adult female […] rats (Charles River, Mattawan, MI, United States) housed in a controlled environment (21°C–22°C temperature, 40%–60%, humidity, and 12 h light/dark cycle) with unrestricted access to food and water and conducted according to local regulations by EyeCRO (Ann Arbor, MI, United States).
In the first study (animal permission #1857), mice received RG7774 as an intravenous (IV) bolus at 1 mg/kg (n = 6) or as an oral (PO) dose at 3 mg/kg (n = 5). In the second study (animal permission #2373), rats received RG7774 as an IV bolus at 10 mg/kg (n = 4) or via gavage at 30 mg/kg (n = 3). Blood samples were collected 0.1, 1, 3, 10, and 24 h post-dose under deep anesthesia with 3%–5% isoflurane in 100% O2. Samples were collected sublingually from mice, from the tail vein in rats or via heart puncture (terminal) into anticoagulant-coated polypropylene tubes and placed on ice. Plasma was prepared within 30 min of collection by centrifugation at 3,000 g for 5 min at 4°C and was immediately frozen. RG7774 concentrations in plasma were determined using LC-MS/MS. PK parameters were estimated by non-compartmental analysis of plasma data using Phoenix WinNonlin software (Certara, Princeton, NJ, United States).

[3] = male, C57BL/6J, mouse, plasma, IV 1 mg/kg
[4] = male, C57BL/6J, mouse, plasma, PO 3 mg/kg

T1 sequence (P34972 whole entry, the tested form may be a part): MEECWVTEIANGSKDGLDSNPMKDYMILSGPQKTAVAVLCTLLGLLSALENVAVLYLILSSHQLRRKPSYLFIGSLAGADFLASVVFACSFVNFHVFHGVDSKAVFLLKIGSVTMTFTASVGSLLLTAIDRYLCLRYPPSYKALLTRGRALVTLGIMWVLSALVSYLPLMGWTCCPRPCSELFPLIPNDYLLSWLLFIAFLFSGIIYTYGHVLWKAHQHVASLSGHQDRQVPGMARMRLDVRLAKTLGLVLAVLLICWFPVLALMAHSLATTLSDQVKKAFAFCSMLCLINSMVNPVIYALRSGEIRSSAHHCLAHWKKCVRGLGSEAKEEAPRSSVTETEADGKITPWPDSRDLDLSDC

With `Cn1nnnc1Cn1nnc2c(N3CC[C@H](O)C3)nc(C(C)(C)C)nc21` [RG7774, (S)-1-(5-tert-butyl-3-[(1-methyl-1H-tetrazol-5-yl)methyl]-3H-[1,2,3]triazolo[4,5-d]pyrimidin-7-yl)pyrrolidin-3-ol] as the compound, how does the “binding selectivity for recombinant human CB2R over CB1R” value [1] read?
The value was greater than 195 fold.

What about the AUCinf/dose ([2]; IV 1 mg/kg) of the same compound?
Its AUCinf/dose is 1,230 ng h^–1 ml^–1 (mg kg^−1) ^−1.

What about the AUCinf/dose ([2]; PO 3 mg/kg) of the same compound?
Its AUCinf/dose is 490 ng h^–1 ml^–1 (mg kg^−1) ^−1.

And the Cmax/dose ([2]; PO 3 mg/kg)?
The Cmax/dose was 487 ng ml^–1 (mg kg^–1) ^−1.

What about the clearance [2, 3] of the same compound?
Its clearance is 13.2 mL/min/kg.

What about the half-life [2, 3] of the same compound?
Its half-life is 9.04 h.

What about the Vd ([2]; male, C57BL/6J, mouse, plasma, IV 1 mg/kg, read-out: Vss) of the same compound?
Its Vd is 3.7 L/kg.

What about the Tmax [2, 4] of the same compound?
Its Tmax is 0.25 h.

What about the bioavailability [2, 4] of the same compound?
Its bioavailability is 42.2%.

What about the half-life [2, 4] of the same compound?
Its half-life is 2.1 h.
